The values below come from paper PMC9923641 (Molecular Biotechnology, 2023).

The target in this experiment is α-glucosidase. Kind of experiment: enzyme inhibition assay with p-nitrophenyl-D-glycopyranoside substrate. Format: biochemical.

Molecules are shown by their SMILES.

One may read the IC50 as the concentration at which inhibition is half-maximal. Higher therefore signals weaker potency in that assay.

For `COc1cccc(O)c1-c1cc(=O)c2c(O)c(OC)c(OC)c(OC)c2o1` [Skullcapflavone II], the IC50 is 95 ± 11.5 nM. Next, `COc1cc(O)c2c(=O)cc(-c3ccccc3O)oc2c1OC` [Skullcapflavone I]: 103 ± 8.43 nM.
